This note sets out measurements from BindingDB's records for doi:10.7270/Q2251GKR (Vanderbilt Screening Center for GPCRs, Ion Channels and …, 2010).

The structures appear in SMILES notation.

In the test the target is T1, Muscarinic acetylcholine receptor M4 (Rattus norvegicus, UniProt P08485).
T1 sequence (P08485 whole entry): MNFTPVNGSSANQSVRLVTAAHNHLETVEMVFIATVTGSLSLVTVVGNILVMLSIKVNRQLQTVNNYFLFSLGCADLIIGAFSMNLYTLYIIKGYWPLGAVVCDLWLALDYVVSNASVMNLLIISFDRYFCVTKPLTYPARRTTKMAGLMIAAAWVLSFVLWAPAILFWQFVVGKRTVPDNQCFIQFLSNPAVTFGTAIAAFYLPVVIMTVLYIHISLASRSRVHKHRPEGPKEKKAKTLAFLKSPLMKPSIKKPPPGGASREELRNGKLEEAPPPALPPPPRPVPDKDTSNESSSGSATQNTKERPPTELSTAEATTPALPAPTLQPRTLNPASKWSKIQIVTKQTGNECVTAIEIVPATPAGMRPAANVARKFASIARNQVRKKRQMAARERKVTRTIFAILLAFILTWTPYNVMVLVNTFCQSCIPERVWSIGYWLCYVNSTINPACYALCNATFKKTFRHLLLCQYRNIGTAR
Put plainly: potentiation of acetylcholine response at rM4 – cell-based, analogs, calcium mobilization, Gqi5, SAR follow-up (AID 1923).

Consider `Cc1cc(C)c2c(N)c(C(=O)NCc3ccc4c(c3)OCO4)sc2n1` [3-amino-4,6-dimethyl-N-piperonyl-thieno[2,3-b]pyridine-2-carboxamide], for which the EC50 turned out to be 369 nM.
